The IC50 is the concentration needed to halve the response being measured.

Data on 2 molecules can be found in patent US5648378A, “2-iminochromene derivatives as inhibitors of protein tyrosine kinase” (Research Corporation Technologies, Inc., priority 1995, dated 1997).

In brackets after ≈: the same amount, converted by molar mass.

One experiment concerns the target T1, p56^lck (Homo sapiens, UniProt P06239).
T1 construct: purchased Upstate Biotechnology Inc
Description: kinase assay, p56lck. The class given is biochemical. As to conditions: poly [Glu,Tyr](4:1) substrate. As for the experimental part:
(§1) Purified p60^c-scr and Src-family kinases p56^lck, p56^lyn, and p55^fyn were obtained from Upstate Biotechnology Inc. Kinase assays were performed as described by A. Gezit, J. Med.

The next experiment addresses T2, p56^lyn (Homo sapiens, UniProt P07948).
T2 construct: purchased Upstate Biotechnology Inc
Description: kinase assay, p56lyn. The format is biochemical. As to conditions: poly [Glu,Tyr](4:1) substrate. Here is the method:
as §1

The target of the next experiment is p55^fyn. Description: kinase assay, p55fyn. The format is biochemical. Particulars: poly [Glu,Tyr](4:1) substrate. Here is the method:
as §1

In a further experiment the target is T3, p60^c-src (Homo sapiens, UniProt P12931).
T3 construct: purchased Upstate Biotechnology Inc
Briefly: kinase assay, purified p60c-src, poly [Glu,Tyr](4:1) substrate. The class given is biochemical. As for the experimental part: as §1

The subject of a further experiment is HT-29 cells. Description: cell growth inhibition, HT-29 colon adenocarcinoma. Particulars: Homo sapiens, HT-29, 72 h; 3 days, Trypan Blue viable cell count. The class given is cell-based. Here is the method: (§2) The source of the cancer cell lines were: HL-60, HT-29, and BT-20, from American Type Culture Collection, Rockville, Maryland; A-1 from Dr. M. H. Freedman, MG-63, from Dr. M. Hurley, and human fibroblast from Dr. R. Zeff. Cells were grown in the culture treated with or without various compounds for 3 days. Cells (except BT-20) were then recovered and treated with Trypan Blue and the number of viable cells counted. For BT-20 cells, a new rapid and simple method using Alamar Blue Assay was used, as described by S. A. Ahmed et al., J. Immunol. Meth., 170, 211 (1994). The symbol i on the Table indicates "not
(§3) As shown on Table 3, several compounds of formula (I) were tested for their ability to inhibit the growth of human cancer cells including promyelocytic leukemia HL-60 cells (S. J. Collins et al., Blood, 70, 1233 (1987)); acute lymphocytic leukemia A-1 cells, (S. Kamel-Reid et al., Leukemia, 6, 8 (1992)); human osteosarcoma MG-63, (A. Pirskanen et al., J. Bone and Mineral Res., 1635 (1994)); human breast carcinoma BT-20 (G. G. Castles et al., Cancer Res., 58, 5934 (1992)); and human colon adenocarcinoma HT-29 cells (R. Garcia et al., Oncogene, 6, 1983 (1991)).

For experiment [1], the system named is human cancer cells (HL-60, A-1, MG-63, BT-20, HT-29). Briefly: inhibition of growth of human cancer cell lines, overall comparison. Particulars: 9TA, 18TA compared with e.g. 9TO, 18TO. The class given is cell-based. Here is the method: as §2, §3
For another experiment, the system named is HL-60 cells. Description: cell growth inhibition, HL-60 promyelocytic leukemia. As to conditions: Homo sapiens, HL-60, 72 h; 3 days, Trypan Blue viable cell count. The format is cell-based. Here is the method: as §2, §3
The test system of a further experiment is A-1 cells. Description: cell growth inhibition, A-1 acute lymphocytic leukemia. The class given is cell-based. Particulars: Homo sapiens, 72 h; 3 days, Trypan Blue viable cell count. Here is the method:
as §2

A further experiment concerns melanoma. As to conditions: 50 mg/day; Thornes et al. (1994); cited from earlier work.

T3 sequence (P12931 whole entry): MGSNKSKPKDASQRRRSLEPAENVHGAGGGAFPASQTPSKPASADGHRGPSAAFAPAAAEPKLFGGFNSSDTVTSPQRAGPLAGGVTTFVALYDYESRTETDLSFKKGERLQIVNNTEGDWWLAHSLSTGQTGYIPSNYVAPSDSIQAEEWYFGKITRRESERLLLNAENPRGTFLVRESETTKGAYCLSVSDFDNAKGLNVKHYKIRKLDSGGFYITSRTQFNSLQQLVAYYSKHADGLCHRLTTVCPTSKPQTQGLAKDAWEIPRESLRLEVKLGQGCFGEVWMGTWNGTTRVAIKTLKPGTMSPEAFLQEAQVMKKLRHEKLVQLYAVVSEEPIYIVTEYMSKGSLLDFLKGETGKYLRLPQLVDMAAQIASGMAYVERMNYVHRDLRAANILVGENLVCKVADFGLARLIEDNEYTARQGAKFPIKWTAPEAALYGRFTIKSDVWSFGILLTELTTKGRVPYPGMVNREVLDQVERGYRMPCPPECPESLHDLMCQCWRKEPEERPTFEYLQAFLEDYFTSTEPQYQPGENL
T1 sequence (P06239 whole entry, species assumed): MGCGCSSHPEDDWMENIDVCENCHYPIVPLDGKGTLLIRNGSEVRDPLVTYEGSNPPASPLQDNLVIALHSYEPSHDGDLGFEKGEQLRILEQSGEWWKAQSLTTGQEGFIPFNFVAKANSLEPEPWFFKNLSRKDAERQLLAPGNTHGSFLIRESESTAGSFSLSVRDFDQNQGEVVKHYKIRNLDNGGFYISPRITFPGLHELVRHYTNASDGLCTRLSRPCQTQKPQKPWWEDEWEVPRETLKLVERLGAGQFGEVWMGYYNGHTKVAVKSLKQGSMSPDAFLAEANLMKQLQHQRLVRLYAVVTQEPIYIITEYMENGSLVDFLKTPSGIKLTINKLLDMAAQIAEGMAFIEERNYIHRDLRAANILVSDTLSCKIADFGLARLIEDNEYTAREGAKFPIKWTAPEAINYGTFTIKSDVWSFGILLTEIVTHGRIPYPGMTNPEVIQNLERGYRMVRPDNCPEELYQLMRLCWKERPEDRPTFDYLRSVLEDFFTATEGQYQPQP
T2 sequence (P07948 whole entry, species assumed): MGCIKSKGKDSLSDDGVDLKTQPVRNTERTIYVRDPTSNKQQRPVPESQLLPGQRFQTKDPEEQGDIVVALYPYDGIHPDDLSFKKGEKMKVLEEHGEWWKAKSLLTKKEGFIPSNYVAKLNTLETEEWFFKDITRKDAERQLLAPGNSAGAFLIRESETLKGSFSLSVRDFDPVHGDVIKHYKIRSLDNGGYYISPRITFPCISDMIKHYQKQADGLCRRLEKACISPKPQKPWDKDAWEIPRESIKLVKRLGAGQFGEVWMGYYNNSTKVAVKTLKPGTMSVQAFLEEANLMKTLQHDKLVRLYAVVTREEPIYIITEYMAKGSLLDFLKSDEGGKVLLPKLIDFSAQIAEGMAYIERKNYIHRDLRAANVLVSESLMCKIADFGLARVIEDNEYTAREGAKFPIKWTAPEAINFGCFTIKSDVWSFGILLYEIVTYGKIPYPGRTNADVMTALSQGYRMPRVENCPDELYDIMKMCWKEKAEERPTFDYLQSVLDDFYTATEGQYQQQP

Take `N=c1oc2c(O)c(O)ccc2cc1C(=O)Nc1cccc(O)c1` [Compound 18TA]: the “IC50, p56^lck” value on p56^lck worked out at 20 µg/mL (≈ 64 µM). At p56^lyn, the “IC50, p56^lyn” value turned out to be 18 µg/mL (≈ 57.6 µM). At p55^fyn, the “IC50, p55^fyn” value was more than 20 µg/mL. Besides, the “inhibition of p60^c-src kinase (in words)” value at p60^c-src is “strong inhibitory effect”. The “fold more potent than 18AN” value on p60^c-src (p60^c-src, versus 18AN) was 88 fold. Moreover, the “IC50, p60^c-src” value against p60^c-src (purified kinase, poly [Glu,Tyr](4:1) substrate) amounted to 0.225 µg/mL (≈ 0.721 µM). For the same molecule, the IC50 with HT-29 cells is more than 20 µg/mL; in the experiment with HL-60 cells, 9 µg/mL (≈ 28.8 µM); with A-1 cells, 20 µg/mL (≈ 64 µM). Further, in [1], the “inhibition of cancer cell growth (in words)” value was “not as potent”.
Turning to `O=c1ccc2ccccc2o1` [coumarin], the “effect against melanoma (in words)” value with melanoma is “effective against melanoma”.
